# Reference: US9408871B2, “Methods for inhibiting complement activation and uses thereof” (THE UNIVERSITY OF BRITISH COLUMBIA, priority 2013, dated 2016)
# Columns and labels:
# [1] = system: terminal pathway (TP) of complement; assay: serum-based terminal pathway (TP) hemolytic assay (2% NHS, C5b,6, chicken erythrocytes); assay type: cell-based, human; conditions: 100 μM (based on the monomeric form)
# Source text: Erythrocyte lysis assays were used to measure complement-mediated hemolytic activity. Erythrocyte (RBC) lysis assays as previously described^18,37 were used to measure complement activity. For alternative pathway assays and for total hemolytic activity assays, unsensitized rabbit erythrocytes were used. Chicken erythrocytes were used for the terminal pathway assays.
# Erythrocytes were washed three times in GVB with the reaction buffers as indicated, and counted using the Advia 120 Hematology System from Siemens (Siemens, Erlangen, Germany). Reactions in 300 μL were allowed to proceed for 30 min at 37° C., after which unlysed cells were pelleted by centrifugation at 600×g. Erythrocyte lysis, reflected by the released hemoglobin in the supernatant, was quantified by measuring the absorbance at 405 nm using the Mithras LB 940 microplate reader from Berthold Technologies (Bad Wildbad, Germany). Percent lysis was determined relative to the control of 100% lysis with H2O. For total hemolytic and terminal pathway (TP) assays, the concentrations of NHS and C5b,6 to initiate complement activation were established from pilot studies to obtain ˜70-80% erythrocyte lysis at 30 min.
# For serum-based terminal pathway (TP) hemolytic assays, components were diluted in GVB containing 10 mM EDTA (GVB-E), the latter added to prevent upstream complement activation and generation of endogenous C5b,6. 2% NHS was used as the source of C7, C8, and C9, and hemolysis of chicken erythrocytes (cRBC) (3.3×10^8 cells/mL) was initiated by addition of exogenous purified C5b,6, the concentration of which was determined from pilot studies to yield ˜70-80% lysis at 30 min. No C5b,6 activity was detected in the NHS prior to initiating the reaction. For some experiments, instead of NHS, purified terminal pathway complement components were used in the TP assays. In these assays, in a final volume of 300 uL GVB, lysis was achieved by the sequential addition of the following components: cRBC (3.3×10^8 cells/mL), C5b,6 (20 μM), C7 (15 nM), C8 (10 nM), and C9 (25 nM). The unlysed cell pellet was removed by centrifugation and lysis was measured immediately after the 30-minute reaction. A standard curve for the terminal pathway assay using serum as the source of complement (FIG. 2) was generated using a fixed serum concentration at 2%, and increasing concentrations of purified C5b,6 dose-dependently lysed chicken erythrocytes after 30 min at 37° C. […] of purified C5b,6 was therefore used to fix baseline lysis at ˜80% to allow assessment of the inhibitory effects of polyphosphate in serum.
# TP activity in NHS(2%), measured by lysis of cRBC, was initiated by adding a limiting amount of exogenous purified C5b,6 (250 pM) to achieve 70-80% lysis after 30 min. A molar excess of EDTA was used to prevent upstream activation of complement and generation of endogenous C5b,6. In the absence of C5b,6, there was no detectable complement-mediated cRBC lysis. P1 at concentrations ranging from 0.1 to 1000 μM, had no effect on complement-mediated hemolysis in NHS via the TP (FIG. 5A). By contrast, polyphosphate>1000 inhibited the TP in serum in a concentration-dependent manner, with an IC50 of ˜10 μM polyphosphate>1000 (dotted lines) (calculated based on monomeric phosphate).
# [2] = biological target: T1, C1-esterase inhibitor (C1-inh) (Homo sapiens, UniProt P05155); assay: C1s-mediated cleavage of C4 in the presence of C1-inh (SDS-PAGE); assay type: biochemical; conditions: 10-500 μM, 2.5 nM C1-inh
# T1 sequence (P05155 23-500): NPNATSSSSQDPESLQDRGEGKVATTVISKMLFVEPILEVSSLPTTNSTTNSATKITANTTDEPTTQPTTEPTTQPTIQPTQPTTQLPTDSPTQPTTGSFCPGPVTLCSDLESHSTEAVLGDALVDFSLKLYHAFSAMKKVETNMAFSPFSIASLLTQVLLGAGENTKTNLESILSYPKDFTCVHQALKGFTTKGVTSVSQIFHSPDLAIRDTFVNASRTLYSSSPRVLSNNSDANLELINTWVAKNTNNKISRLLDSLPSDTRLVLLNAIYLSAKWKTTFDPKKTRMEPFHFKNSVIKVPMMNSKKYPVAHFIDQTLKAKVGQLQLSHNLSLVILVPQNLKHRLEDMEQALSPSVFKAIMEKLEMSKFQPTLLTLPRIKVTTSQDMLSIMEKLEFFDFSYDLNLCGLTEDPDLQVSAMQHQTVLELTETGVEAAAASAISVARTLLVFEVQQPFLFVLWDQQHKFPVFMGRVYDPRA
# Method: We tested whether polyP affects the inhibitory properties of C1-inh on C1s-mediated cleavage and activation of complement factor C4 and C2. SDS-PAGE followed by coomassie staining of gels was used to monitor cleavage of C4 by C1s in the presence/absence of C1-inh and/or polyP in a purified system.
# 2.5 nM C1s (reaction 1) or 2.5 nM C1-inh (reaction 2), and 300 μM polyP were incubated in 20 mM Hepes, 0.15 M NaCl, pH 7.5, 0.01% Tween buffer for 90 minutes at 37° C. 2.5 nM C1-inh (reaction 1) or 0.5 nM C1s (reaction 2) was added and incubated for 30 minutes at 37° C. 1.5 μM C4 was added and incubated for 5 minutes at 37° C. The reactions were quenched with 5× loading buffer and β-ME. Samples were taken and run on an SDS-PAGE 8% gel (FIG. 15B).
# Briefly, 2.5 nM C1s with 5-300 μM of polyP130 (reaction 1; FIG. 16A) or polyP1000 (reaction 2; FIG. 16B) were incubated in 20 mM Hepes, 0.15 M NaCl, pH 7.5, 0.01% Tween buffer for 90 minutes at 37° C. 2.5 nM C1s was added and incubated for 30 minutes at 37° C. 1.5 μM C4 was added and incubated for 5 minutes at 37° C. The reactions were quenched with 5× loading buffer and β-ME.
# Briefly, 2.5 nM C1s with 10-500 μM of polyP14, polyP60, polyP130, polyP1000 were incubated in 20 mM Hepes, 0.15 M NaCl, pH 7.5, 0.01% Tween buffer for 90 minutes at 37° C. 2.5 nM C1s was added and incubated for 30 minutes at 37° C. […]
effect of polyP size on C1-inh (C4 cleavage by C1s) [2],SMILES,effect on TP hemolytic activity at equivalent concentration [1]
had no effect on C1-inh,"O=P([O-])([O-])OP(=O)([O-])[O-].[Na+].[Na+].[Na+].[Na+] [P2, diphosphate (Na4P2O7)]",had no effect
had no effect on C1-inh,"O=P([O-])([O-])OP(=O)([O-])OP(=O)([O-])[O-].[Na+].[Na+].[Na+].[Na+].[Na+] [P3, triphosphate (Na5P3O10)]",had no effect
